Laboratory results published in ChEMBL document CHEMBL2413040, “Ligand/kappa-opioid receptor interactions: insights from the X-ray crystal structure” (Eur J Med Chem, 2013).

Assay: Binding affinity to kappa opioid receptor in guinea pig cerebral cortex after 2.5 hrs
Format: tissue-based, Cavia porcellus

| Structure (SMILES) | Ki [nM] |
| --- | --- |
| NC(=O)[C@H](CC1CCCCC1)NC(=O)[C@@H](Cc1c[nH]c2ccccc12)NC(=O)[C@H](Cc1ccc2ccccc2c1)NC(=O)[C@@H](N)Cc1ccccc1 | 6000 |
| CCCC[C@H](N)C(=O)N[C@@H](Cc1ccccc1)C(=O)N[C@H](Cc1c[nH]c2ccccc12)C(=O)N[C@@H](CC1CCCCC1)C(N)=O | 10000 |
| NC(=O)[C@H](CC1CCCCC1)NC(=O)[C@@H](Cc1c[nH]c2ccccc12)NC(=O)[C@H](Cc1ccccc1)NC(=O)[C@@H](N)Cc1ccccc1 | 10000 |
| CCCC[C@H](N)C(=O)N[C@@H](Cc1ccc2ccccc2c1)C(=O)N[C@H](Cc1c[nH]c2ccccc12)C(=O)N[C@@H](CC1CCCCC1)C(N)=O | 10000 |
| CC[C@H](C)[C@@H](NC(=O)[C@H](Cc1ccc2ccccc2c1)NC(=O)[C@@H](N)Cc1ccccc1)C(=O)N[C@@H](CC1CCCCC1)C(N)=O | 53 |
| CCCC[C@H](N)C(=O)N[C@@H](Cc1ccc2ccccc2c1)C(=O)N[C@@H](C(=O)N[C@@H](CC1CCCCC1)C(N)=O)[C@@H](C)CC | 56 |
| CC[C@H](C)[C@@H](NC(=O)[C@H](Cc1ccccc1)NC(=O)[C@@H](N)Cc1ccccc1)C(=O)N[C@@H](CC1CCCCC1)C(N)=O | 64 |
| CCCC[C@H](N)C(=O)N[C@@H](Cc1ccccc1)C(=O)N[C@H](CCCC)C(=O)N[C@@H](CC1CCCCC1)C(N)=O | 71 |
| CCCC[C@H](N)C(=O)N[C@@H](Cc1ccccc1)C(=O)N[C@@H](C(=O)N[C@@H](CC1CCCCC1)C(N)=O)[C@@H](C)CC | 341 |
| N=C(N)NCCC[C@H](NC(=O)[C@@H](Cc1c[nH]c2ccccc12)NC(=O)[C@H](Cc1ccccc1)NC(=O)[C@@H](N)Cc1ccccc1)C(N)=O | 1140 |
| N=C(N)NCCC[C@H](NC(=O)[C@@H](Cc1c[nH]c2ccccc12)NC(=O)[C@H](Cc1ccc2ccccc2c1)NC(=O)[C@@H](N)Cc1ccccc1)C(N)=O | 1150 |
| CCCC[C@H](N)C(=O)N[C@@H](Cc1ccc2ccccc2c1)C(=O)N[C@H](Cc1c[nH]c2ccccc12)C(=O)N[C@@H](CCCNC(=N)N)C(N)=O | 1760 |
| CCCC[C@H](N)C(=O)N[C@@H](Cc1ccccc1)C(=O)N[C@H](Cc1c[nH]c2ccccc12)C(=O)N[C@@H](CCCNC(=N)N)C(N)=O | 4550 |
| CCCC[C@@H](NC(=O)[C@H](Cc1ccccc1)NC(=O)[C@@H](N)Cc1ccccc1)C(=O)N[C@@H](CCCNC(=N)N)C(N)=O | 1.2 |

The remaining lines, values ahead:

| Ki [nM] | Structure (SMILES) |
| --- | --- |
| 7.1 | CCCC[C@@H](NC(=O)[C@H](Cc1ccc2ccccc2c1)NC(=O)[C@@H](N)Cc1ccccc1)C(=O)N[C@@H](CCCNC(=N)N)C(N)=O |
| 9.3 | CCCC[C@H](N)C(=O)N[C@@H](Cc1ccccc1)C(=O)N[C@@H](C(=O)N[C@@H](CCCNC(=N)N)C(N)=O)[C@@H](C)CC |
| 26 | CCCC[C@@H](NC(=O)[C@H](Cc1ccccc1)NC(=O)[C@@H](N)Cc1ccccc1)C(=O)N[C@@H](CC1CCCCC1)C(N)=O |
| 27 | CCCC[C@H](N)C(=O)N[C@@H](Cc1ccc2ccccc2c1)C(=O)N[C@H](CCCC)C(=O)N[C@@H](CC1CCCCC1)C(N)=O |
| 33 | CCCC[C@@H](NC(=O)[C@H](Cc1ccc2ccccc2c1)NC(=O)[C@@H](N)Cc1ccccc1)C(=O)N[C@@H](CC1CCCCC1)C(N)=O |
| 1.5 | CCCC[C@H](N)C(=O)N[C@@H](Cc1ccc2ccccc2c1)C(=O)N[C@@H](C(=O)N[C@@H](CCCNC(=N)N)C(N)=O)[C@@H](C)CC |
| 2.3 | CCCC[C@H](N)C(=O)N[C@@H](Cc1ccc2ccccc2c1)C(=O)N[C@H](CCCC)C(=O)N[C@@H](CCCNC(=N)N)C(N)=O |
| 2.4 | CC[C@H](C)[C@@H](NC(=O)[C@H](Cc1ccccc1)NC(=O)[C@@H](N)Cc1ccccc1)C(=O)N[C@@H](CCCNC(=N)N)C(N)=O |
| 3.6 | CC[C@H](C)[C@@H](NC(=O)[C@H](Cc1ccc2ccccc2c1)NC(=O)[C@@H](N)Cc1ccccc1)C(=O)N[C@@H](CCCNC(=N)N)C(N)=O |
| 4.2 | CCCC[C@H](N)C(=O)N[C@@H](Cc1ccccc1)C(=O)N[C@H](CCCC)C(=O)N[C@@H](CCCNC(=N)N)C(N)=O |
